{"source": "patent US9073885B2", "about": "“Vitamin D3 lactone derivatives” (Teijin Pharma Limited, priority 2003, dated 2015)", "tested_on": "HL-60 cells", "assay": "Vitamin D3 antagonist action: inhibition of HL-60 cell differentiation induced by 1α,25-dihydroxyvitamine D3 (NBT reducing activity)", "assay_type": "cell-based", "details": "Homo sapiens, HL-60, 96 h, inhibition of NBT reducing activity induced by 1×10^-8 M 1α,25-dihydroxyvitamine D3, 4 days", "text": "The Vitamin D3 Antagonist Action Determined by Using the Induction of HL-60 Cell Differentiation by 1α,25-dihydroxyvitamine D3 as an Indicator\n(1) HL-60 cells that were purchased from a cell bank (Japanese Cancer Research Resources Bank, Cell No. JCRB0085) were used. The cells were maintained as a frozen preservation stock to prevent changes in cellular characteristics by subculture. The stock was thawed before starting the experiment, and the cells which subsequently initiated subculture were used. The cells with subcultivation approximately over one month to a half year were used for the experiment. The subcultivation was performed by first centrifuging and collecting cells in suspension culture, and then diluting the collected cells by approximately a factor of 100 to a concentration of 1×10^4 to 2×10^4 cells/ml in a fresh culture medium. An RPMI-1640 medium with 10% fetal bovine serum was used as the culture medium. […]\n(3) The induction of nitroblue tetrazolium (hereinafter referred to as NBT) reducing activity was used as an indicator of the induction of HL-60 cell differentiation. The NBT reducing activity was measured according to the procedures described below. […]", "note": "pIC50: −log10 of the molar value."}
{"smiles": "C=C1C(=O)OC(C[C@@H](C)[C@H]2CC[C@H]3/C(=C/C=C4/C[C@@H](O)C[C@H](O)C4=C)CCC[C@]23C)C1CCO", "note": "(stereo partly drawn) [Compound No. 114a, 20(R)-(tetrahydro-3-methylene-2-furanone-4-(2-hydroxyethyl)-5-yl)methyl-9,10-secopregna-5(Z),7(E),10(19)-triene-1α,3β-diol]", "values": [{"measurement": "pIC50", "result": "> 8.00"}]}
